Measured values from patent publication EP1260232A1, “REMEDIES FOR MALIGNANT TUMOR-CONCOMITANT NEUROSIS AND AZOOR OR ANALOGOUS DISEASES THEREOF” (priority 2000, dated 2001).

Tests used:
[1] = Clinical case: therapeutic effect on AZOOR, static visual field examination (Humphrey visual field analyzer); format: in vivo; settings: one AZOOR patient
Description: Case: History of the present illness: The patient became aware of dark and blurred vision in the center of their visual field on September 1, 1999, and visited Ohyachi Kyoritsu Eye Clinic on September 4 in the same year.. […] ERG was subnormal and normal for the right and left eyes, respectively. […] FAG detected mild leakage of fluorescein from the optic disc of the right eye. In view of these observations, optic nerve disorder was suspected and the patient was made to visit a brain surgeon in the neighborhood to receive CT and MRT examinations. However, no abnormality was found. […] To treat the eye symptom, the clinic prescribed oral medications such as drug for ameliorating circulation for a while, but no improvement of visual field was observed. Thus, on October 1, 1999, the patient was referred to the Department of ophthalmology at Sapporo Medical University, School of Medicine for close examination. Results of the first examination: Visual acuity was Vd=1.2 and Vs=1.2. Although pupils were round and equal in size, the right eye was RAPD(+) but no oculomotor abnormalities were observed. […] In the static visual field examination, reduction of the sensitivity in the central visual field was observed. Course of disease: Oral administration of prednisolone (40mg/day) was started on October 1, 1999. […]

apoptosis caused by CAR = assay: Therapeutic effect on cancer-associated neuropathy: ERG in rats after intravitreal anti-recoverin and anti-hsp70 antibodies; format: in vivo; settings: Lewis rats, light for 24 hours; nilvadipine 3.2 mg/kg/day peritoneal for two weeks with antibody infusion into vitreous body; follow-up five weeks; compared with predonine 0.6 µg/kg/day i.m. and cyclosporine A 10 mg/kg/day i.m.; Fig. 1
Protocol: Test animal: Lewis rats (8 weeks of age) Treatment group 5 animals (10 eyes) Control group 5 animals (10 eyes) Photoenvironment: Apoptosis (cell death) was induced under light for 24 hours. Test drugs: Nilvadipine (3.2 mg/kg/day) by peritoneal administration (dissolving solution) polyethylene glycol 400: ethanol: water = 1:1:2 Predonine (0.6 µg/kg/day) by intramuscular injection (dissolving solution) PBS (phosphate buffer solution) Cyclosporine A (10 mg/kg/day) by intramuscular injection (dissolving solution) olive oil Antibodies: anti-recoverin antibody (5 µl/eye) anti-hsp70 antibody (5 µl/eye) Administration method: Test drugs were administered for two weeks along with infusion of antibodies into vitreous body of the eye. Follow-up observation was performed for five weeks after the start of administration. PBS alone was administered to the control group.
In Fig. 1, the vertical axis represents ERG (electroretinogram) amplitude, and the horizontal axis is the lapse of time in weeks. Δ: nilvadipine group; □: predonine group; ◇: cyclosporin A group; and ○: control group.

SMILES | static visual field examination / visual sensitivity ([1]; two months after start of oral nilvadipine, following 0.3 ml Depo-Medrol sub-Tenon's injection to both eyes, Figs. 4 and 5) | ERG (electroretinogram) amplitude (apoptosis caused by CAR) | visual field ([1]; oral prednisolone 40 mg/day reduced stepwise to 10 mg/day, October-November 1999, Figs. 2 and 3)
COC(=O)C1=C(C#N)NC(C)=C(C(=O)OC(C)C)C1c1cccc([N+](=O)[O-])c1 (stereo not drawn) [nilvadipine, isopropyl 6-cyano-5-methoxycarbonyl-2-methyl-4-(3-nitrophenyl)-1,4-di hydropyridine-3-carboxylate ester] | remarkable improvement of visual sensitivity | more effective than predonine and cyclosporin A | –
C[C@]12C=CC(=O)C=C1CC[C@@H]1[C@@H]2[C@@H](O)C[C@@]2(C)[C@H]1CC[C@]2(O)C(=O)CO [prednisolone] | – | – | could not improve the visual field
